In US11332485B2, “Penicillin-binding protein inhibitors” (priority 2017, dated 2022) one finds EC50 and MIC data, which are given here for eleven compounds.

In assay [1] the target is T1, PBP3 from Escherichia coli (Escherichia coli, UniProt P0AD68).
T1 construct: made in house
Description: Fluorescence polarization competition binding assay with Bocillin-FL. The source says: To determine the ability of boronic acid-based test PBP inhibitors to bind Penicillin Binding Proteins (PBPs), Bocillin-FL (fluorescently-labeled penicillin V; ThermoFisher Scientific) was used in a fluorescence polarization (FP) competition binding assay to assess boronic acid PBP inhibitor binding to PBP3 from Escherichia coli. PBP3 from Escherichia coli was cloned and purified as described previously (King, D. T, et al., ACS Infectious Diseases 2015, 1, 175-184). To establish assay conditions for competition binding, an enzyme titration/saturation binding experiment was performed. Bocillin-FL was prepared at […] in a buffer comprised of 50 mM Hepes (pH 8.0), 300 mM NaCl and 5% (v/v) glycerol. Saturation binding was performed by mixing […] of PBP3 ranging in concentrations from […] with 40 μl of the 0.2 μM Bocillin-FL solution, in individual wells of a black 384-well microplate. FP was measured immediately upon addition of PBP3 (Ex, Em), using a Cytation3 (BioTek) microplate reader and measured continuously for 60 minutes. […] The competition binding assay was validated using the beta-lactam ampicillin, with Bocillin-FL at a final concentration of 0.1 μM, PBP3 at a final concentration of 1.5 μM and concentrations of ampicillin from 0-1000 μM. PBP3 was incubated with ampicillin at different concentrations in a black 384-well microplate (Corning) for 30 minutes, then Bocillin-FL added and the FP immediately measured for 60 minutes. […] Binding assays for boronic acid PBP inhibitors were performed in an identical fashion. Representative results are shown in Table 3, where A represents a potency of >500 μM, B represents a potency between 30 μM and 500 μM inclusive, and C represents a potency of <30 μM. NT=Not Tested.

Assay [2] has as its target T2, PBP1a from Escherichia coli (Escherichia coli, UniProt P02918).
T2 construct: made in house
Put plainly: Radioligand competition binding assay with 14C-labeled boronic acid probe (Example 96). The following applies: 14C-labeled probe 96 at 20 μM, PBP 0.1 μM; read-out: E. coli K12 PBP1a EC50. The source says:
To determine the ability of boronic acid-based test PBP inhibitors to bind Penicillin Binding Proteins (PBPs), a radio-labelled boronic acid PBP inhibitor (Example 96) was used in competition binding assays to determine boronic acid PBP inhibitor binding to PBP1a or PBP1b from Escherichia coli. PBP1a and PBP1b were purified as described previously (Bertsche, U.; et al., J. Biol. Chem. 2005, 280 (45), 38096-38101; Born, P.; et al., J Biol. Chem. 2006. 281 (37), 26985-26993). To establish assay conditions for competition binding, an enzyme titration/saturation binding experiment was performed. Saturation binding was performed in a buffer comprised of 20 mM Tris (pH 7.5), 500 mM NaCl and 0.1% (v/v) TritonX-100, with PBP1a/PBP1b at a final concentration of 0.1 μM and 96 at final concentrations ranging from 0-100 μM. Mixtures were incubated for 60 minutes, then applied to Zeba Spin Desalting columns or plates (ThermoFisher Scientific) and centrifuged at 1000-1500×g for 2 minutes. The flow through, containing PBP bound with 96, was recovered and 100 μL mixed with 5 mL of UltimaGold liquid scintillation cocktail (Perkin Elmer), and the radioactivity counted using a Beckman Coulter LS 6500 Multipurpose scintillation counter. PBP binding of 96 approached saturation at 20 μM of ^14C-labeled probe. The competition binding assay was validated using the beta-lactam ampicillin, with 96 at a final concentration of 20 μM, PBP1a/PBP1b at a final concentration of 0.1 μM. PBP1a/PBP1b was incubated with ampicillin in a 96-well microplate for 60 minutes, then 96 was added and the mixtures incubated for an additional 60 minutes. The mixtures were then applied to Zeba Spin desalting plates and centrifuged at 1000×g for 2 minutes. The flow through was recovered and 100 μl mixed with 5 ml of UltimaGold liquid scintillation cocktail and the radioactivity counted. Ampicillin inhibited binding of 96 with an EC50 (the concentration of inhibitor required to reduce binding of 96 by 50%) of less than 0.5 μM. Binding assays with boronic acid PBP inhibitors were performed in an identical fashion. The potency of boronic acid PBP inhibitors was reported as the EC50 value.
Representative results are shown in Table 5, where A represents a potency of >100 μM, B represents a potency between 10 μM and 100 μM inclusive, and C represents a potency of <10 μM. NT=Not Tested.
A general note: Loss of bound radioactivity is the signal in a displacement assay; it reports binding, not function.

For another assay, the system named is S. aureus ATCC 29213. Put plainly: Broth microdilution MIC assay. Type of assay: cell-based. As to conditions: Staphylococcus aureus, ATCC29213; broth microdilution, 16-20 hours at 37° C.; read-out: S. aureus 29213 MIC. An outline of the steps: (§1)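 MIC taken by eye as the lowest compound concentration showing no growth after 16-20 hours at 37° C. Cultures grown 3-5 h in cation-supplemented Mueller-Hinton broth were added to 2-fold compound dilution series at a starting density of 5×10^5 CFU/mL, following CLSI methods.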
Background: In broth dilution the organism is exposed to a series of concentrations in liquid medium.

In assay [3] the test system is hyper-permeable E. coli 901C. Put plainly: Broth microdilution MIC assay. In kind it is cell-based. The following applies: Escherichia coli, read-out: E. coli 901C MIC. The essentials:
as §1

In the next assay the test system is E. coli DH5α/pLBII. Description: Broth microdilution MIC assay, empty vector control strain. In kind it is cell-based. As to conditions: Escherichia coli, read-out: E. coli DH5α/pLBII Microbiological Activity (MIC). An outline of the steps:
(§2)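 CLSI broth microdilution in cation-supplemented Mueller-Hinton broth, 2-fold compound dilutions, 5×10^5 CFU/mL inoculum, 16-20 h at 37° C, MIC read visually as lowest concentration without growth. E. coli DH5α carries CTX-M15 on pLBII under Lac promoter, or empty pLBII as control.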

In assay [4] the test system is E. coli DH5α/pLBII-CTX-M15. Put plainly: Broth microdilution MIC assay, engineered strain producing CTX-M15. The following applies: Escherichia coli, read-out: E. coli DH5α/pLBII-CTX-M15 Microbiological Activity (MIC). In kind it is cell-based, Escherichia coli. An outline of the steps:
as §2

For orientation: EC50 means the concentration giving half of the maximal effect.

T1 sequence (P0AD68 1-577): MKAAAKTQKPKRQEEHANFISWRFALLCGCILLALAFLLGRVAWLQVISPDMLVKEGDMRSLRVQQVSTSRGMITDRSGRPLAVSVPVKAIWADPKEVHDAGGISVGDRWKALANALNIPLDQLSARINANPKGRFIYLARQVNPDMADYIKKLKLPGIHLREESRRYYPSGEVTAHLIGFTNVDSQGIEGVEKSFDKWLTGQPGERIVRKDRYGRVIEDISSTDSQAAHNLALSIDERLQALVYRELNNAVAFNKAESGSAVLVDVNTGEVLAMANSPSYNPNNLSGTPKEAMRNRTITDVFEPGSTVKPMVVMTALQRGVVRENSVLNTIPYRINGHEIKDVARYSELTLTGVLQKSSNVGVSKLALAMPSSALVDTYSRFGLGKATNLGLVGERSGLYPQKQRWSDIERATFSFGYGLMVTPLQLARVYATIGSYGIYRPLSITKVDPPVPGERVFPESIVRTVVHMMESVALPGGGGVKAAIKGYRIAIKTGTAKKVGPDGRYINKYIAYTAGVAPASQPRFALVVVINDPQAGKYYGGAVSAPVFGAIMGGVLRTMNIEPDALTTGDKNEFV
T2 sequence (P02918 whole entry): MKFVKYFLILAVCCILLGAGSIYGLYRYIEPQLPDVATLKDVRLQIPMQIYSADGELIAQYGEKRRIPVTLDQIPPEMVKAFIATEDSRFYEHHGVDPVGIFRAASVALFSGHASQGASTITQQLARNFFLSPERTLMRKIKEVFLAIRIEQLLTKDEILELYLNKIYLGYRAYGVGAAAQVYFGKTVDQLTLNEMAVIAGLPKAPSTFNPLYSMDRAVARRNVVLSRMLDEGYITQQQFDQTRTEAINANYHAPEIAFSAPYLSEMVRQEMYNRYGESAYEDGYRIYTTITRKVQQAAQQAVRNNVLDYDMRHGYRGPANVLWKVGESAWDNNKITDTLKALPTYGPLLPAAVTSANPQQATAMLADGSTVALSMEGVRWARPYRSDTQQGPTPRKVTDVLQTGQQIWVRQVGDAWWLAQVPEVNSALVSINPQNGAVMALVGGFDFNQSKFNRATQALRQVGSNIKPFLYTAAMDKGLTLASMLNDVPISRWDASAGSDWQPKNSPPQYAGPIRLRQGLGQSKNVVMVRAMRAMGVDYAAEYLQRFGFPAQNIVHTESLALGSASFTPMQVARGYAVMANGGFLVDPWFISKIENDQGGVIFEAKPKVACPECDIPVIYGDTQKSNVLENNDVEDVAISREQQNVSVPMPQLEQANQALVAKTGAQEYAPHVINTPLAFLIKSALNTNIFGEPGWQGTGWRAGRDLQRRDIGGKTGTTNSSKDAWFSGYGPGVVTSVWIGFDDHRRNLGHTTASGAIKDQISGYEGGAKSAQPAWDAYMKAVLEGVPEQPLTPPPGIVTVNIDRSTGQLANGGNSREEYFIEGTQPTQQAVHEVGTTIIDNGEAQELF

Take `CS(=O)(=O)N1CCN(C(=O)NC(C(=O)N[C@H]2Cc3cccc(C(=O)O)c3OB2O)c2csc(N)n2)C1=O` (stereo partly drawn) [Example 20, (3R)-3-(2-(2-aminothiazol-4-yl)-2-(3-(methylsulfonyl)-2-oxoimidazolidine-1-carboxamido)acetamido)-2-hydroxy-3,4-dihydro-2H-benzo[e][1,2]oxaborinine-8-carboxylic acid]: the EC50 was 30 to 500 µM in assay [1] and under 10 µM in assay [2]. The MIC with S. aureus ATCC 29213 was 64 to 128 µg/mL; in assay [3], under 64 µg/mL; in the assay with E. coli DH5α/pLBII, 32 to 64 µg/mL; in assay [4], 32 to 64 µg/mL.
As for `CCN1CCN(C(=O)NC(C(=O)N[C@H]2Cc3cc(OC)cc(C(=O)O)c3OB2O)c2csc(N)n2)C(=O)C1=O` (stereo partly drawn) [Example 38, (3R)-3-(2-(2-aminothiazol-4-yl)-2-(4-ethyl-2,3-dioxopiperazine-1-carboxamido)acetamido)-2-hydroxy-6-methoxy-3,4-dihydro-2H-benzo[e][1,2]oxaborinine-8-carboxylic acid], the EC50 in assay [1] was over 500 µM; in assay [2] it was under 10 µM. For the same compound, the MIC was 64 to 128 µg/mL in the assay on S. aureus ATCC 29213, under 64 µg/mL in assay [3], 32 to 64 µg/mL in the assay with E. coli DH5α/pLBII and 32 to 64 µg/mL in assay [4].
As to `CCC(O)[C@@H](NC(=O)N1CCN(CC)C(=O)C1=O)C(=O)N[C@H]1Cc2cccc(C(=O)O)c2OB1O` (single isomer, unassigned) [Example 82], the half-maximal effective concentration (EC50) in assay [1] is 30 to 500 µM; in assay [2], under 10 µM. Besides, the MIC is over 128 µg/mL with S. aureus ATCC 29213, under 64 µg/mL in assay [3], 32 to 64 µg/mL in the assay with E. coli DH5α/pLBII and 32 to 64 µg/mL in assay [4].
As to `CCN1CCN(C(=O)N[C@@H](C(=O)N[C@H]2Cc3cccc(C(=O)O)c3OB2O)C(C)(C)C)C(=O)C1=O` [Example 85, (R)-3-((R)-2-(4-ethyl-2,3-dioxopiperazine-1-carboxamido)-3,3-dimethylbutanamido)-2-hydroxy-3,4-dihydro-2H-benzo[e][1,2]oxaborinine-8-carboxylic acid], the half-maximal effective concentration (EC50) in assay [1] was under 30 µM; in assay [2], under 10 µM. The values for the MIC (in the assay on S. aureus ATCC 29213; in assay [3]; in assay [4]) were over 128 µg/mL, under 64 µg/mL and 128 to 256 µg/mL, respectively.
For `Nc1nc(C(NC(=O)N2CCN(CCO)C(=O)C2=O)C(=O)N[C@H]2Cc3cccc(C(=O)O)c3OB2O)cs1` (stereo partly drawn) [Example 60, (3R)-3-(2-(2-aminothiazol-4-yl)-2-(4-(2-hydroxyethyl)-2,3-dioxopiperazine-1-carboxamido)acetamido)-2-hydroxy-3,4-dihydro-2H-benzo[e][1,2]oxaborinine-8-carboxylic acid], the EC50 in assay [1] was in the range of 30 to 500 µM. Further, the MIC with S. aureus ATCC 29213 is 64 to 128 µg/mL; in assay [3], under 64 µg/mL; with E. coli DH5α/pLBII, 8 to 16 µg/mL; in assay [4], 8 to 16 µg/mL.
As to `Nc1nc(C(NC(=O)N2CCN(Cc3ccccc3)C(=O)C2=O)C(=O)N[C@H]2Cc3cccc(C(=O)O)c3OB2O)cs1` (stereo partly drawn) [Example 49, (3R)-3-(2-(2-aminothiazol-4-yl)-2-(4-benzyl-2,3-dioxopiperazine-1-carboxamido)acetamido)-2-hydroxy-3,4-dihydro-2H-benzo[e][1,2]oxaborinine-8-carboxylic acid], the EC50 in assay [1] is under 30 µM. Further, the MIC was 64 to 128 µg/mL in the assay on S. aureus ATCC 29213, under 64 µg/mL in assay [3], 128 to 256 µg/mL in the assay with E. coli DH5α/pLBII and 128 to 256 µg/mL in assay [4].
The compound `Nc1nc(C(NC(=O)N2CCN(CCF)C(=O)C2=O)C(=O)N[C@H]2Cc3cccc(C(=O)O)c3OB2O)cs1` (stereo partly drawn) [Example 52, (3R)-3-(2-(2-aminothiazol-4-yl)-2-(4-(2-fluoroethyl)-2,3-dioxopiperazine-1-carboxamido)acetamido)-2-hydroxy-3,4-dihydro-2H-benzo[e][1,2]oxaborinine-8-carboxylic acid] displayed an EC50 in assay [1] of 30 to 500 µM. The MIC in the assay on S. aureus ATCC 29213 was 64 to 128 µg/mL; in assay [3], under 64 µg/mL; in the assay with E. coli DH5α/pLBII it was 8 to 16 µg/mL; in assay [4], 8 to 16 µg/mL.
`CCN1CCN(C(=O)N[C@H](CCO)C(=O)N[C@H]2Cc3cccc(C(=O)O)c3OB2O)C(=O)C1=O` [Example 59, (R)-3-((R)-2-(4-ethyl-2,3-dioxopiperazine-1-carboxamido)-4-hydroxybutanamido)-2-hydroxy-3,4-dihydro-2H-benzo[e][1,2]oxaborinine-8-carboxylic acid] displayed an EC50 in assay [1] of over 500 µM. Moreover, the MIC with S. aureus ATCC 29213 was over 128 µg/mL; in assay [3] it was under 64 µg/mL; with E. coli DH5α/pLBII, 32 to 64 µg/mL; in assay [4], 32 to 64 µg/mL.
`CCN1CCN(C(=O)N[C@@H](CO)C(=O)N[C@H]2Cc3cccc(C(=O)O)c3OB2O)C(=O)C1=O` [Example 32, (R)-3-((S)-2-(4-Ethyl-2,3-dioxopiperazine-1-carboxamido)-3-hydroxy-propanamido)-2-hydroxy-3,4-dihydro-2H-benzo[e][1,2]oxaborinine-8-carboxylic acid] came in with a 50% effective concentration (EC50) in assay [1] of over 500 µM. The MIC is over 128 µg/mL with S. aureus ATCC 29213, over 128 µg/mL in assay [3], over 512 µg/mL in the assay on E. coli DH5α/pLBII and over 512 µg/mL in assay [4].
Regarding `Nc1nc(C(NC(=O)N2CCN(O)C(=O)C2=O)C(=O)N[C@H]2Cc3cccc(C(=O)O)c3OB2O)cs1` (stereo partly drawn) [Example 72, (3R)-3-(2-(2-aminothiazol-4-yl)-2-(4-hydroxy-2,3-dioxopiperazine-1-carboxamido)acetamido)-2-hydroxy-3,4-dihydro-2H-benzo[e][1,2]oxaborinine-8-carboxylic acid], the EC50 in assay [1] lay in the range of 30 to 500 µM. Also, the MIC in the assay on S. aureus ATCC 29213 is 64 to 128 µg/mL; in assay [3], under 64 µg/mL; with E. coli DH5α/pLBII it was 128 to 256 µg/mL; in assay [4] it was 128 to 256 µg/mL.
For the compound `CC(C)N1CCN(C(=O)NC(C(=O)N[C@H]2Cc3cccc(C(=O)O)c3OB2O)c2csc(N)n2)C(=O)C1=O` (stereo partly drawn) [Example 55, (3R)-3-(2-(2-aminothiazol-4-yl)-2-(4-isopropyl-2,3-dioxopiperazine-1-carboxamido)acetamido)-2-hydroxy-3,4-dihydro-2H-benzo[e][1,2]oxaborinine-8-carboxylic acid], the EC50 in assay [1] is 30 to 500 µM. Moreover, the MIC in the assay on S. aureus ATCC 29213 is 64 to 128 µg/mL; in assay [3] it was under 64 µg/mL; in the assay on E. coli DH5α/pLBII, 8 to 16 µg/mL; in assay [4], 8 to 16 µg/mL.
